A short description of this series: gradient 5% acetonitrile 3 min, to 50% in 2 min, to 85% in 15 min, held 3 min, 100 µL/min. The settings on record: column: Zorbax Extend-C18 2.1 x 50 mm; eluents: water / acetonitrile, 0.1% formic acid. Put shortly: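 Retention times of pure standards were taken from adduct peaks that were selected by computer and manually inspected. Over 3 months, mixtures of ~100 molecules were run by HPLC–quadrupole time-of-flight mass spectrometry in positive and negative ionization mode. The Zorbax Extend-C18 column (2.1 × 50 mm, 1.8 μm) ran at 100 μL/min in water and acetonitrile, each containing 0.1% formic acid, with 40 μL dead volume and 900 μL dwell volume.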
For the molecule `Cc1ccc(-c2csc(NC(=O)c3sc(C)nc3C)n2)cc1`, the RP-LC retention time was determined as 974 s.
In the case of `CN(CC1CCOC1)C(=O)c1cc(F)ccc1Cl` (centres undefined) it was 704 s; in that of `COc1cccc(-c2noc(Cc3nnc(-c4cccc(Br)c4)o3)n2)c1OC`, 1010 s.
In the case of `O=C(NCc1ccccn1)C1=C2CCCN2c2ccc(F)cc2S1(=O)=O` it was 1030 s; in that of `CCc1nnc(-c2cc(NC(=O)c3ccnn3C)c(C)s2)o1`, 774 s.
To `O=C1CCC2(CCN1)CCN(S(=O)(=O)c1ccc(Cl)c(Cl)c1)CC2` belongs 839 s; to `Cc1nnc2c(=O)n(CC(=O)NC(C)c3ccc(F)cc3)c3cccnc3n12` (centres undefined), 677 s.
Molecule `Cc1ccccc1S(=O)(=O)N1CCc2nc(-c3ccc(Cl)cc3)ncc2C1` showed an RP-LC retention time of 1240 s.
To `Clc1ccc(-c2csc(Cc3nc(-c4ccc5c(c4)OCO5)no3)n2)cc1` belongs 1200 s; to `CNC(=O)N1CCCC(c2cccc(C(=O)NCc3ccc(C(F)(F)F)cc3)c2)C1` (centres undefined), 853 s.
The molecule `COc1ccccc1CNc1c(-c2ccc(OC(C)C)cc2)nc2ncccn12` yielded an RP-LC retention time of 826 s.
In the case of `CC1CCN(Cc2csc(N3CCN(C(=O)c4ccc5c(c4)OCO5)CC3)n2)CC1` it was 632 s; in that of `COc1ccc(NC(=O)CCCSc2ccc(F)cc2)c([N+](=O)[O-])c1`, 983 s.
To `COc1ccc(C(C)NC(=O)C2CCN(c3cncnc3N3CCCCC3)CC2)cc1` (centres undefined) belongs 685 s; to `Cn1nc(C2CCN(C(=O)c3ccc4ccccc4n3)CC2)c2c1CCOC2`, 669 s; to `Cc1ccc(N2C(=O)C3N=NN(Cc4nc(-c5ccc(OC(C)C)cc5)no4)C3C2=O)cc1Cl` (centres undefined), 1170 s.
To `CC(C)C(=O)Nc1cn(-c2ccc(C(=O)Nc3ccc4c(c3)OCCO4)cc2)cn1` belongs 808 s.
With `Cc1cc2c(c(=O)n(-c3ccccc3)c(=O)n2CC(=O)Nc2ccc(F)c(Cl)c2)n1C`, the RP-LC retention time turned out to be 902 s.
For `Cc1cc(C)n(-c2ccnc(N3CCC(C(=O)N4CCC5(CC4)OCCO5)CC3)n2)n1`, the RP-LC retention time stood at 712 s.
As for `O=C(Cc1ccc(Cl)cc1)Nc1ccc(N2CCN(C3CCCC3)C2=O)nc1`, the RP-LC retention time was 834 s.
To `CCOc1ccc(-c2csc(C)n2)cc1S(=O)(=O)Nc1ccc(F)cc1` belongs 985 s; to `CSc1ccc(NC(=O)CCl)cc1`, 751 s; to `Cn1cc(C2=CCN(C(=O)c3cccc(Cl)c3)CC2)c2cccnc21`, 901 s.
In the case of `CCC(C(=O)N1CCN(c2ccccn2)CC1)n1nc(C)c2sc3ccccc3c2c1=O` (centres undefined) it was 705 s; in that of `Cc1ccnc(Nc2nc(-c3ccc(C)c(C)c3)cs2)c1`, 902 s; in that of `c1ccc(-c2nnc(-c3nc(NCCc4cccs4)c4ccccc4n3)o2)cc1`, 1040 s.
For the molecule `O=C1CC(c2noc(-c3ccccc3)n2)CN1c1ccc(Cl)cc1` (centres undefined), the RP-LC retention time was found to be 1040 s.
To `COc1cccc(C(=O)Nc2cccn3ncnc23)c1` belongs 710 s.
To `CCc1ccc(CNC(=O)c2cn(C)nc2S(=O)(=O)N2CCSCC2)cc1` belongs 961 s; to `Cc1ccn2c(Nc3ccccc3C)c(-c3ccc(Cl)cc3)nc2c1`, 810 s; to `Cc1ccc(C(=O)Nc2ccc(-c3nnc4n3CCCC4)cc2)s1`, 680 s.
To `Fc1cc(F)cc(-c2nnc(Cc3nc(-c4ccc5c(c4)OCO5)no3)o2)c1` belongs 987 s; to `O=C(CSc1nnc(NC(=O)c2ccc(Br)o2)s1)NCC1CCCO1` (centres undefined), 648 s; to `CSc1ccc(CNC(=O)CCC(=O)N2Cc3cccn3-c3ccccc32)cc1`, 961 s.
`O=S(=O)(c1ccccc1)N1CC(c2nnc(-c3ccncc3)o2)C2(CCOCC2)C1` (centres undefined) displayed an RP-LC retention time of 660 s.
With `Cc1ccc(NS(=O)(=O)c2cc(-c3[nH]ncc3C(=O)N3CCCC3)oc2C)cc1F`, the RP-LC retention time is 741 s.
The molecule `COCC(=O)NC1CCC12CCN(S(=O)(=O)c1c(C)nn(C)c1C)CC2` (centres undefined) showed an RP-LC retention time of 657 s.
In the case of `O=C(N[C@@H]1CN(C(=O)C2CC2)CC[C@@H]1CO)C1CC1` it was 576 s.
`CCNC(=O)c1ccc2c(c1)CCCN2S(=O)(=O)c1ccc(Cl)cc1` gave an RP-LC retention time of 887 s.
To `CS(=O)(=O)Nc1ccc(-c2noc(CNC(=O)c3ccccc3)n2)cc1` belongs 704 s; to `O=C(CN1C(=O)C2CCCCN2c2ccc(S(=O)(=O)N3CCCC3)cc21)NCc1cccs1` (centres undefined), 882 s.
The molecule `COc1ccc(NC(=O)C2CCN(c3cnc4nc(C)c(C)nc4c3)CC2)cc1Cl` yielded an RP-LC retention time of 756 s.
The molecule `COc1ccc(NC(=O)CN2CCc3[nH]c4c(C)c(Cl)ccc4c(=O)c3C2)cc1Cl` showed an RP-LC retention time of 762 s.
To `O=c1n(Cc2cccc(C(F)(F)F)c2)nc2ccc(-c3ccccc3)nn12` belongs 887 s; to `CCn1c(=O)c(C(=O)N2CCN(c3cc(C)ccc3C)CC2)nc2cccnc21`, 1040 s.
In the case of `COc1ccccc1NC(=O)N1CCC(c2cc(N)on2)CC1` it was 678 s.
In the case of `O=C(CCc1nnn2c1CN(C(=O)c1ccc(F)cc1)CC2)NC1CC1` it was 617 s; in that of `Cn1nnc2cc(C(=O)N3CCCCC3)ccc21`, 738 s.
`CC(=O)N1CCC2(CC1)OC(=O)C(C)=C2C(=O)NCCCN(Cc1ccccc1)C(C)C` registered an RP-LC retention time of 580 s.
To `Cc1ccc(CNC(=O)Cn2c(=O)c(CCC(=O)NCC(C)C)nc3ccccc32)cc1` belongs 814 s; to `Cn1nc(C(=O)NCC2CCOCC2)c2ccccc21`, 697 s; to `NC(=O)C1CCN(C(=O)Cn2c(=O)nc(-c3ccccc3)c3cc(Cl)ccc32)CC1`, 639 s.
With `CCOC(=O)N1CCC(c2nnc(Cc3ccc(OC)cc3)s2)CC1`, the RP-LC retention time is 788 s.
In the case of `CC(C)n1c(N2CCN(C(=O)C3CC(=O)N(CCc4ccccc4)C3)CC2)cc(=O)n(C(C)C)c1=O` (centres undefined) it was 786 s.
Turning to `CCC(=O)NCc1nc2c(n1C)CN(C(=O)c1ccccc1Br)CC2`, the RP-LC retention time came out at 505 s.
For the molecule `Cc1ccccc1-c1nc2cnccn2c1NCCC(=O)NCc1cccc(Cl)c1`, the RP-LC retention time turned out to be 717 s.
`Cc1ccc(CNC(=O)C2(C)CN(S(C)(=O)=O)CC(=O)N2c2cc(C)ccc2C)cc1` (centres undefined) had an RP-LC retention time of 898 s.
In the case of `Cc1cc2n(n1)CCCN2C(=O)CCC(=O)NC1CCN(Cc2ccccc2)CC1` it was 579 s.
In the case of `CCOC(=O)c1[nH]c(C)c(C(=O)C(C)N(CC(C)C)C(=O)c2ccc(C)cc2)c1C` (centres undefined) it was 1030 s; in that of `CCCS(=O)(=O)N1CCC2(CC1)c1[nH]c3ccccc3c1CCN2C`, 659 s; in that of `Cc1ccc2[nH]cc(CCN3CC(C(=O)Nc4ccc(F)c(Cl)c4)CC3=O)c2c1` (centres undefined), 899 s.
To `CCN1C(=O)c2cc(S(=O)(=O)Nc3ccc(F)c(C)c3)ccc2Oc2cccnc21` belongs 1060 s.
In the case of `O=C(c1cccc(Cl)c1)N1N=C(c2ccco2)CC1c1ccco1` (centres undefined), the RP-LC retention time was determined as 1020 s.
In the case of `COc1cc(-c2nnc(-c3ccc(C)c(S(=O)(=O)N4CCC(C)CC4)c3)o2)cc(OC)c1OC` it was 1170 s; in that of `CN1CCc2ccccc2Cc2[nH]c3ccccc3c2CC1`, 738 s; in that of `O=C(Nc1ccccc1)C1CCCN(S(=O)(=O)Cc2ccccc2Cl)C1` (centres undefined), 976 s.
To `O=C(NCc1cccnc1)C1CCN(Cc2cc3ccccc3n2Cc2cccc(Cl)c2)CC1` belongs 750 s; to `COC[C@@H]1CN(C(=O)c2occc2C)C[C@H]1c1nc(C2CC2)no1`, 816 s; to `COc1ccc(-c2noc(C3CC(=O)N(c4ccc(F)cc4)C3)n2)cc1OC` (centres undefined), 808 s.
In the case of `NCCC1CCN(C(=O)Nc2ccccc2)CC1` it was 577 s; in that of `c1cc2c(cc1-c1noc(C3CCC3)n1)ncn2CCN1CCCC1`, 596 s; in that of `COc1ccccc1N1CCN(CCCNc2cc(C(=O)O)c3ccccc3n2)CC1`, 575 s.
`CCC(C(=O)NCCCN1CCCCC1)n1nc(C)c2sc3ccccc3c2c1=O` (centres undefined) returned an RP-LC retention time of 691 s.
To `Cc1ccc(NC(=O)CN2C(=O)NC3(CCCCC3)C2=O)cc1F` belongs 798 s; to `COC(=O)c1ccc(NC(=O)Cn2c(=O)cc(-c3nc(C(C)C)no3)c3ccccc32)cc1`, 990 s; to `Cc1nn2c(CNS(=O)(=O)c3cc(C)c(C)cc3C)c(-c3ccccc3)nc2s1`, 941 s.
To `CCn1cnc(S(=O)(=O)N2CCCC(C(=O)Nc3cccc(C(F)(F)F)c3)C2)c1` (centres undefined) belongs 871 s; to `COc1ccc(NC(=O)Cn2cc(-c3ccccc3C)c(N3CCOCC3)n2)c(OC)c1`, 959 s; to `CC(=O)N(Cc1nn(C)c2c1CN(S(=O)(=O)c1cc(C)cc(C)c1)CC2)c1ccccc1`, 856 s.
